# Experimental data published in US20250197438A1, “IMMUNOREGULATORY AMIDE DERIVATIVE WITH IMPROVED MATERIAL PROPERTIES” (AEVIS BIO, INC., priority 2021, published 2025).
# Entries after “also recorded” stand apart in the source; their conditions may differ.
# Key:
# [1] = Water solubility, stepwise addition of water, classed by USP23; assay type: physicochemical
# Protocol: 3 mg of lenalidomide (Combi-Block, Inc. San Diego, CA, USA) and ribose-lenalidomide were each weighed and placed in a 1.5 mL Eppendorf tube, 0.03 mL of water was added thereto, and then the mixture was vortexed for one minute and then centrifuged at 15,000 rpm for 1 minute, and an undissolved compound was precipitated. When the precipitated compound was visible, 0.03 mL of water was added, and the above process was repeated.
# The solubility was determined by Table 1 as defined in United States Pharmacopeia 23 (USP23).
# multiple myeloma = settings: combination of lenalidomide and dexamethasone; cited from earlier work
# [2] = system: choroidal neovascularization lesion; assay: Macular degeneration treatment effect, laser-induced mouse CNV model (wet AMD); assay type: in vivo; settings: for CNV lesion, intravitreal administration: once immediately after laser irradiation, fluorescent staining of blood vessels
# Protocol: It was intended to confirm the healing efficacy of a lesion in a mouse CNV model, which is a wet senile macular degeneration (wet AMD) model.
# To this end, five C57BL/6 (Koatech, Korea) male mice (aged 7 weeks) were used, and after 1 week of acclimation, the 8-week-old mice were anesthetized using ketamine hydrochloride (100 mg/kg, I.P.), and a drop of Mydriacyl (tropicamide) eye drops was placed on the right eye to induce mydriasis. After 3 minutes, the mouse was placed on a stand attached to a slit lamp, and a coverslip was put on the right eye to serve as a contact lens. After illuminating the optic nerve head using the slip lamp, four laser spots (200 mW, 50 μm spot size, 100-ms duration) around the optic nerve head were irradiated using a 532 nm laser device (Irdiex Oculight Tx, USA) attached to the slit lamp.
# After forming a choroidal neovascularization lesion as described above, a solution prepared by dissolving ribose-lenalidomide in PBS was administered to the lesion. For intravitreal administration, 1.5 μL of the solution with a concentration of 0.2 μg/mL was administered once immediately after laser irradiation using a 25 μL Hamilton syringe with a 33G needle. Meanwhile, ribose-lenalidomide was dissolved in PBS to have a concentration of 2 mg/mL, prepared in the form of eye drops, administered four times a day, and then 7 days or 14 days after administration, efficacy was confirmed through fluorescent staining of blood vessels.
# Fluorescent staining was performed using Heidelberg Spectralis HRA+OCT device (Heidelberg, Germany) equipment, the mouse was anesthetized using ketamine hydrochloride (100 mg/kg, I.P.) and xylazine (10 mg/kg, I.P.), a drop of Mydriacyl (tropicamide) eye drops was placed on the right eye to induce mydriasis, 0.05 mL of 10% fluorescite (Alcon, USA) was administered via I.P. administration to stain blood vessels. Fluorescent images were taken 10 minutes after fluorescite injection.
# MM.1S cells = assay: Tumor cell killing effect, CCK analysis; assay type: cell-based, human; settings: 0 to 10 μM, 3 days, dissolved in DMSO or D.W.
# Protocol: To this end, a human multiple myeloma cell line, MM.1S (CRL-2974), was purchased from the American Type Culture Collection (ATCC, Manassas, VA, USA), and incubated using a RPMI1640 medium (Corning, MD, USA) supplemented with a 10% bovine fetal serum (Corning, MD, USA), 100 U/mL penicillin (Corning, MD, USA), and 100 μg/mL streptomycin (Corning, MD, USA) at 37° C. in a 5% CO2 incubator for 24 hours. The cells were seeded at 1×10^4 cells/well in a 96-well plate, incubated for 24 hours, further incubated for 3 days after treatment with 0, 0.005, 0.014, 0.041, 0.123, 0.37, 1.111, 3.333, or 10 μM of ribose-lenalidomide dissolved in DMSO or D.W., and then analyzed using a CCK analysis kit (Dojindo, Japan) according to the manufacturer's instructions.
# CK1α = target: T1, CK1α (Homo sapiens, UniProt P48729+Q96SW2); assay: CK1α degradation in MM.1S cells, western blot; assay type: cell-based; settings: 1 μM or 10 μM, 24 hours
# T1 construct: endogenous in cells; host or cells: MM.1S (ATCC CRL-2974)
# Protocol: (§1) After seeding the cells and incubating the cells for 24 hours, each compound was further incubated for 24 hours after treatment with 1 μM or 10 μM of each compound. The cells were lysed in a RIPA buffer containing a protease inhibitor cocktail (Thermo Fisher Scientific) and centrifuged at 14,000 rpm for 15 minutes at 4° C., thereby obtaining a cell extract. The cell extract was loaded at the same amount, separated using SDS-PAGE, and transferred to a PVDF membrane. The protein-transferred membrane was blocked using skim milk, subjected to o/n incubation with a primary antibody at 4° C., and incubated with an HRP-attached secondary antibody at 4° C. for 1 hour. The cells were washed with TBS-T three times between steps. Detection was performed by applying a chemiluminescence reagent (Thermo Fisher Scientific), and confirmation was performed using Chemidoc (iBright CL1000, Invitrogen, CA, USA).
# SALL4 = target: T2, SALL4 (Homo sapiens, UniProt Q96SW2+Q9UJQ4); assay: SALL4 degradation in Tera-1 cell line (HTB-105), western blot; assay type: cell-based; settings: 1 or 10 μM, compared with the base compound
# T2 construct: endogenous in cells; host or cells: Tera-1 (ATCC HTB-105)
# Protocol: The cell extract was loaded at the same amount, separated using SDS-PAGE, and transferred to a PVDF membrane. The protein-transferred membrane was blocked using skim milk, subjected to o/n incubation with a primary antibody at 4° C., and incubated with an HRP-attached secondary antibody at 4° C. for 1 hour. The cells were washed with TBS-T three times between steps. Detection was performed by applying a chemiluminescence reagent (Thermo Fisher Scientific), and confirmation was performed using Chemidoc (iBright CL1000, Invitrogen, CA, USA).
# Ikaros = target: T3, Ikaros (Homo sapiens, UniProt Q13422+Q96SW2); assay: Ikaros degradation in MM.1S cells, western blot; assay type: cell-based; settings: 1 μM or 10 μM, 24 hours
# T3 construct: endogenous in cells; host or cells: MM.1S (ATCC CRL-2974)
# Protocol: (§2) It is known that a thalidomide-based compound binds to an E3 ligase, cereblon (CRBN), and decomposes transcription factors Aiolos and Ikaros as substrates, thereby regulating the function of immune cells. Therefore, to confirm whether ribose-lenalidomide still maintains its immunomodulatory function, the Aiolos and Ikaros degradation effect was compared with its base, lenalidomide.
# as §1
# cereblon (CRBN) protein = target: T4, cereblon (CRBN) protein (Homo sapiens, UniProt Q96SW2); assay: CRBN binding affinity, Alpha assay of competitive inhibition of CRBN-dBET1 binding; settings: compared with the base lenalidomide or pomalidomide
# T4 construct: FLAG; purchased BPS Bioscience #79770
# Excerpt: An immunomodulatory amide-type compound such as lenalidomide is known to act by binding to the cereblon (CRBN) protein. Therefore, the binding affinity of ribose-lenalidomide for the cereblon (CRBN) protein was compared with that of its base, lenalidomide (Combi-Block, Inc. San Diego, CA, USA), for the cereblon (CRBN) protein.
# Aiolos = target: T5, Aiolos (Homo sapiens, UniProt Q96SW2+Q9UKT9); assay: Aiolos degradation in MM.1S cells, western blot; assay type: cell-based; settings: 1 μM or 10 μM, 24 hours
# T5 construct: endogenous in cells; host or cells: MM.1S (ATCC CRL-2974)
# Protocol: as §2, §1
smiles,measurement,setting,value
"Nc1cccc2c1CN(C1CCC(=O)NC1=O)C2=O (racemic) [lenalidomide, (RS)-3-(4-amino-1-oxo-1,3-dihydro-2H-isoindol-2-yl)piperidine-2,6-dione, reference compound]",water solubility in words,[1]; D.W.,completely insoluble in water; also recorded: barely dissolved in D.W
same,disease-free survival period,multiple myeloma,13.4 months
same,overall survival period,multiple myeloma,38 months
O=C1CCC(N2Cc3c(/N=C/[C@H](O)[C@@H](O)[C@H](O)[C@H](O)CO)cccc3C2=O)C(=O)N1 (stereo partly drawn) [glucose-lenalidomide (type 1)],"CNV lesion, intravitreal administration",[2],macular degeneration treatment effect was confirmed
O=C1CCC(N2C(=O)c3cccc(NC[C@H](O)[C@@H](O)[C@H](O)[C@H](O)CO)c3C2=O)C(=O)N1 (stereo partly drawn) [glucose-pomalidomide (type 2)],tumor cell killing effect / viability of MM.1S cells,MM.1S cells,not significantly reduced
O=C1CCC(N2Cc3c(/N=C/[C@H](O)[C@H](O)[C@H](O)CO)cccc3C2=O)C(=O)N1 (stereo partly drawn) [ribose-lenalidomide (type 1)],"CNV lesion, eye drop administration","[2]; eye drops 2 mg/mL in PBS, four times a day, 7 or 14 days",distinct decrease in the lesion
same,"CNV lesion, intravitreal administration",[2],distinct decrease in the lesion
same,CK1α degradation effect,CK1α,almost similar to lenalidomide
same,solubility term based on USP 23,[1]; water,freely soluble
same,solubility at 1 min,"[1]; water, thermodynamic from solid, D.W., no visible precipitate after vortexing and centrifugation",≥ 100 mg/mL
same,SALL4 degradation effect (teratogenic side effect),SALL4,inhibited SALL4 degradation effect compared to lenalidomide
same,Ikaros degradation effect,Ikaros,almost similar to lenalidomide
same,tumor cell killing effect / viability of MM.1S cells,MM.1S cells,effective in killing MM.1S cells
same,CRBN binding affinity,cereblon (CRBN) protein,improved binding affinity
same,Aiolos degradation effect,Aiolos,almost similar to lenalidomide
